Data published in US20070224128A1, “Drug adherence monitoring system” (priority 2006, published 2007).
≈ marks a conversion by molar mass, not a printed value. Counter-ions that a name gives are not always drawn. Like-named read-outs stand apart in the source and are kept apart here.

Assays:
[1] = cited from earlier work
[2] = water at 25° C.; cited from earlier work
rat [3] = details: 4H; cited from earlier work
rat [4] = details: cited from earlier work
human recombinant CYP2D6 = human recombinant CYP2D6 (Homo sapiens, UniProt P10635)
Sequence of human recombinant CYP2D6 (P10635 whole entry): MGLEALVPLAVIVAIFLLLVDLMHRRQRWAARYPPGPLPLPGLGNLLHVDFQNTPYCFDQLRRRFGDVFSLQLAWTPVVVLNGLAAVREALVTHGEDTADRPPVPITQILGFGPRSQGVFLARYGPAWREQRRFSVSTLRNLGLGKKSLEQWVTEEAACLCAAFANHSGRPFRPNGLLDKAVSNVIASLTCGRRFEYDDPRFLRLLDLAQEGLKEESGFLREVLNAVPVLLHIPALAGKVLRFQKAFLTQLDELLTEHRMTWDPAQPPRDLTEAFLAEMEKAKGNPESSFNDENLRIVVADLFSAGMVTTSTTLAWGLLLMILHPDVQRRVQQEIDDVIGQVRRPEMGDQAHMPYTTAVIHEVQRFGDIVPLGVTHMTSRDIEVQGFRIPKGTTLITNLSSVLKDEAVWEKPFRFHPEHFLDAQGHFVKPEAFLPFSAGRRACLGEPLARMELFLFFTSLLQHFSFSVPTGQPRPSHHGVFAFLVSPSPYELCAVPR
Procedure: CYP 2D6 inhibition assays were performed by Novascreen (Hanover, Md.). In brief, after 100 μL solution containing the compounds (dextromethorphan or trifluoroethyldextrorphan, concentration ranging from 10^−10 M to 10^−5M) and mixed 50 μL cofactor solution were preincubated in 100 mM potassium phosphate buffer (pH=7.4) for 10 min at 37° C., 50 μL of freshly mixed solution of human recombinant CYP2D6 (1.5 pmole) and AMMC (1.5 μM) was added to each well. The final cofactor concentrations were 1.3 mM NADP^+, 3.3 mM glucose-6-phosphate, 0.4 U/ml glucose-6-phosphate dehydrogenase. Samples were incubated for 45 minutes and the reaction was stopped with 75 μL Tris/acetonitrile stop solution. Quinidine was used as the reference compound. The AMMC metabolite, AMHC, was measured using a fluorescent plate scanner at an excitation wavelength of 390 nm and emission wavelength of 460 nm.

human liver microsomes = experiment: Human liver microsomes assay: trifluoroacetaldehyde captured from headspace, GC/MS; details: 2 mg/mL human liver microsome, 1 mM trifluoroethyldextrorphan, 1.5 hours, determined as DNPH derivative
Procedure: Microsomal incubations were conducted in 1.5 mL polypropylene vials containing 2 mg/mL human liver microsome, 5.2 mM NADP^+, 13.2 mM glucose-6-phosphate, 1.6 U/ml glucose-6-phosphate dehydrogenase, 6.6 mM magnesium chloride and 1 mM trifluoroethyldextrorphan in 100 mM potassium phosphate buffer (pH 7.5). The total volume was 1.5 mL.
LpDNPH S10 cartridges were employed to collect trifluoroacetaldehyde produced from incubation mixture for 1.5 hours through suction generated by a 5 mL syringe. The incubations were performed in triplicate. […]
A Thermo Finnigan Polaris Q Mass Spectrometer (MS) system (consists of a Polaris Q MS, a TRACE GC, and the Xcalibur Data System) was used. […] Negative chemical ionization (NCI) mode was used for identification and quantitation of trifluoroacetaldehyde 2,4-dinitrophenylhydrazone. […]
[^15N4]trifluoroacetaldehyde 2,4-dinitrophenylhydrazone was used as an internal standard for the determination of trifluoroacetaldehyde as its DNPH derivative. Quantitation was performed by selected ion monitoring (SIM) of most intensive fragment ions trifluoroacetaldehyde 2,4-dinitrophenylhydrazone (m/z 182) against the internal standard [^15N4]trifluoroacetaldehyde 2,4-dinitrophenylhydrazone (m/z 185). […]
The fragment ions m/z 182 and 185 were monitored for quantitation. […]

In the case of `OC(C(F)(F)F)C(F)(F)F` [R′4], the VP ([1]; at 20° C.) is given as 102 torr, the VP ([1]; at 25° C.) is given as 159 torr and the Solubility [2] is given as 7770 mg/L (≈ 46.2 mM). The “LC50 Inhalation rat” value (rat [3]) was 1974 ppm/4H and the “LD50 Oral rat” value (rat [4]) was 1040 to 1500 mg/kg.
In the case of `COc1ccc2c(c1)[C@]13CCCC[C@@H]1[C@H](C2)N(C)CC3` [dextromethorphan, Dextromethorphan hydrobromide, reference compound], the “potency to inhibit AMMC metabolism” value (human recombinant CYP2D6) is reported as “similar”.
In the case of `OC(C(F)(F)F)(C(F)(F)F)C(F)(F)F` [R′3], the VP ([1]; at 20° C.) is listed as 268 torr and the Solubility [2] is listed as 39,200 mg/L.
In the case of `CN1CC[C@@]23CCCC[C@@H]2[C@@H]1Cc1ccc(OCC(F)(F)F)cc13` [trifluoroethyldextrorphan, O-trifluoroethyldextrorphan], the “potency to inhibit AMMC metabolism” value (human recombinant CYP2D6; human recombinant CYP2D6 1.5 pmole, AMMC 1.5 μM, compounds 10^−10 M to 10^−5 M, 45 minutes, FIG. 5) is reported as “similar” and the “trifluoroacetaldehyde captured from the headspace of the microsomal incubation mixture” value (human liver microsomes) is reported as 120 ng.
